Experimental data taken from patent publication US4029801A, “Pharmaceutical compositions and methods of treating hypertension” (priority 1970, dated 1977).
Read-outs that look alike come from different tables or passages of the source.

Legend:
Depressant activity = assay type: in vivo; conditions: result in words
histamine = biological target: T1, histamine (Cavia porcellus, UniProt P31389); assay: Antihistamine activity by the method of Alps et al.; conditions: for antihistamine activity: result in words
T1 construct: from tissue

[1] = tested on: blood pressure and heart rate; assay: Method 1 (rat): hypotensive activity in anaesthetised rats, i.v.; conditions: for minimal effective dose: Rattus norvegicus, iv; for Significant bradycardia (dose; decrease in heart rate of more than 30%): anaesthetised rat, i.v., cumulative dose
Description: Rats were anaesthetised with pentobarbitone sodium (60 mg/kg) and the jugular vein, trachea and carotid artery were cannulated. […] A decrease in heart rate of more than 30% from control values was considered to be significant bradycardia.

α-adrenoceptor = assay: α-Adrenoceptor antagonism on the guinea pig aortic strip; conditions: for α-blockade pA2: Table 4; for α-adrenoceptor antagonism: result in words; for pA2 (α-adrenoceptor antagonism): guinea pig aortic strip
Text: Carried out on the guinea pig aortic strip [Furchgott and Bhadrakom (1953) J. Pharmac. exp. Ther. 108, 129-143] by the method of Alps et al [Br. J. Pharmac. 1972 44, 52-62].

blood pressure = assay: Tests for action on the cardiovascular system: hypotensive activity (activity in method 1, rats or cats, or method 2), reported in words; assay type: in vivo, rat, cat; conditions: standard test procedure, result in words
Description: Tests for action on the cardiovascular system were conducted according to one of the following procedures:
(§1) Cats were anaesthetised with pentobarbitone sodium (30 mg/kg) and the cephalic vein, femoral and carotid arteries and trachea were cannulated. The carotid cannula was introduced into the left ventricle and the femoral cannula into the aorta. Blood pressure and heart rate were recorded from the aortic cannula and left ventricular pressure from the carotid cannula. The test compunds were administered intravenously (0.1-25.6 mg/kg).
(§2) Method 2 (hypertensive rats)
(§3) Male or female rats are rendered hypertensive by applying a figure of 8 ligature around one kidney and contralateral nephrectomy. Blood pressure stabilises at a hypertensive level after 6 weeks. Systolic pressure is measured indirectly using a Decker Caudal Plethysmograph A control group of rats is run with each group treated with drug. Each group usually consists of six rats. Drugs are usually administered by the IP or oral routes. Pressures are read prior to drug administration and at two and 24 hours thereafter.

Antiarrhythmic activity = conditions: result in words
[2] = Anti-inflammatory activity; assay type: in vivo; conditions: result in words
[3] = tested on: blood pressure and heart rate; assay: Method 1 (cat): blood pressure, heart rate and left ventricular pressure in anaesthetised cats, i.v.; assay type: in vivo; conditions: 3.2 mg/kg
Description: as §1

systolic pressure = assay: Method 2: anti-hypertensive activity in renal hypertensive rats; assay type: in vivo, rat
Description: as §2, §3
Falls in systolic blood pressure 2 hr after an oral dose of 40 mg/kg: >50
mm, +++; 50-30 mm, ++; 30-15 mm, +; <15 mm, ±. g Oral dose of 75 mg/kg
h Oral dose of 10 mg/kg. i Oral dose of 2.5 mg/kg.

tremorine = assay: Anti-tremorine activity; assay type: in vivo; conditions: result in words
Anti-convulsant activity = assay type: in vivo; conditions: result in words
[4] = 0.25 h, read-out: Hypotensive Activity
[5] = Table 4, read-out: Antihistamine pA2 (converted)
[6] = pA2 (antihistamine activity), Table 2
[7] = read-out: Significant hypotension (dose; fall of 30 mm mercury or more in diastolic pressure)

T1 sequence (P31389 whole entry): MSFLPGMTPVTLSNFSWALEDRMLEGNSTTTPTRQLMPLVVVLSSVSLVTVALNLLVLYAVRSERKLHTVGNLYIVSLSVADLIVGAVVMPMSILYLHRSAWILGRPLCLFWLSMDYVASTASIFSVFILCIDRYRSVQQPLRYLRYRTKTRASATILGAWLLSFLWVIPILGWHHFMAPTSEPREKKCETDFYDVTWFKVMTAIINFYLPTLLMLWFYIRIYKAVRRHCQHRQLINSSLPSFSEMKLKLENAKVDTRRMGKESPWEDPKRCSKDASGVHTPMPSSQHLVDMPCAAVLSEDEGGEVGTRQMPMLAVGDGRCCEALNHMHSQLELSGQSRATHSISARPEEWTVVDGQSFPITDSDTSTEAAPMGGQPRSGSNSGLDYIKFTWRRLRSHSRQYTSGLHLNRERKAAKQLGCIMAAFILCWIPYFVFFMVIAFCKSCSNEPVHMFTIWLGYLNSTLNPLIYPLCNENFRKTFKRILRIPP

O=C(NC1CCN(CCc2ccc(O)c(O)c2)CC1)c1ccccc1 [Example 9, 1-[2(3,4-Dihydroxyphenyl)ethyl]-4-benzamidopiperidine]
depressant activity (Depressant activity): depressant activity
antihistamine activity (histamine): antihistamine
minimal effective dose [1, 4]: < 30 mg/kg

O=C(CN1CCC(NC(=O)c2ccccc2)CC1)c1ccccc1 [Example 10, 1-Phenacyl-4-benzamidopiperidine]
α-blockade pA2 (α-adrenoceptor): 5.8
depressant activity (Depressant activity): depressant activity
minimal effective dose [1, 4]: 6.4 to 12.8 mg/kg
hypotensive activity (blood pressure): hypotensive

O=C(NC1CCN(CCc2ccc3ccccc3c2)CC1)c1ccccc1 [Example 13, 1-[2-(2-Naphthyl)ethyl]-4-benzamidopiperidine]
α-blockade pA2 (α-adrenoceptor): 7.4
α-adrenoceptor antagonism (α-adrenoceptor): α-adrenoceptor antagonism
Kb (histamine; [5]): 25.1 nM
antihistamine activity (histamine): antihistamine
minimal effective dose [1, 4]: 1.6 to 3.2 mg/kg
hypotensive activity (blood pressure): hypotensive activity
antiarrhythmic activity (Antiarrhythmic activity): antiarrythmic activities

O=C(CCCN1CCC(NC(=O)c2ccccc2)CC1)c1ccc(F)cc1 [Example 19, 1-[4-(4-Fluorophenyl)-4-oxobutyl]-4-benzamidopiperidine]
α-blockade pA2 (α-adrenoceptor): 7.5
pA2 (α-adrenoceptor antagonism) (α-adrenoceptor): 7.4
depressant activity (Depressant activity): depressant
Kb (histamine; [6]): 2.51 nM
antihistamine activity (histamine): antihistamine
anti-inflammatory activity [2]: antiinflammatory activity
minimal effective dose [1, 4]: 0.8 mg/kg
minimal effective dose [1, 7]: 0.8 to 1.6 mg/kg
Significant bradycardia (dose; decrease in heart rate of more than 30%) [1]: 1.6 mg/kg
hypotensive activity (blood pressure): marked hypotensive activity
Significant lowering of blood pressure [3]: 38 mmHg
cardiac effort index [3]: lowered
cardiac output [3]: decreased
heart rate lowered [3]: 28.9%
myocardial contractile force decreased [3]: 25.7%
Pressure reduced to (systolic pressure; hypertensive rat, 10 mg/kg p.o., from 188 mmHg): 138 mmHg

O=C(NC1CCN(CCc2ccc([N+](=O)[O-])cc2)CC1)c1ccccc1 [Example 22, 1-[2-(p-Nitrophenyl)ethyl]-4-benzamidopiperidine]
depressant activity (Depressant activity): depressant
minimal effective dose [1, 4]: 25.6 mg/kg
hypotensive activity (blood pressure): hypotensive activity
anti-tremorine activity (tremorine): anti-tremorine activities

CC(=O)Nc1ccc(CCN2CCC(NC(=O)c3ccccc3)CC2)cc1 [Example 24, 1-[2-(p-Acetamidophenyl)ethyl]-4-benzamidopiperidine]
depressant activity (Depressant activity): depressant
minimal effective dose [1, 4]: 6.4 to 12.8 mg/kg
hypotensive activity (blood pressure): hypotensive activity
anti-tremorine activity (tremorine): anti-tremorine activities

O=C(NC1CCN(CC(O)c2ccc(Cl)c(Cl)c2)CC1)c1ccccc1 (centres unmarked) [Example 36, 1-[2-(3,4-Dichlorophenyl)-2-hydroxyethyl]-4-benzamidopiperidine]
anti-convulsant activity (Anti-convulsant activity): anti-convulsant activities
minimal effective dose [1, 4]: < 30 mg/kg
hypotensive activity (blood pressure): hypotensive

O=C(NC1CCN(CCc2ccc(Cl)c(Cl)c2)CC1)c1ccccc1 [Example 37, 1-[2-(3,4-Dichlorophenyl)ethyl]-4-benzamidopiperidine]
α-blockade pA2 (α-adrenoceptor): 7.35
α-adrenoceptor antagonism (α-adrenoceptor): α-adrenoceptor antagonism
Kb (histamine; [5]): 3.98 nM
antihistamine activity (histamine): antihistamine
minimal effective dose [1, 4]: 1.6 to 3.2 mg/kg
hypotensive activity (blood pressure): good hypotensive activity
anti-tremorine activity (tremorine): anti-tremorine activities

O=C(NC1CCN(CCc2c(Cl)cccc2Cl)CC1)c1ccccc1 [Example 38, 1-[2-(2,6-Dichlorophenyl)ethyl]-4-benzamidopiperidine]
depressant activity (Depressant activity): depressant activities
minimal effective dose [1, 4]: < 30 mg/kg
hypotensive activity (blood pressure): hypotensive activity
anti-tremorine activity (tremorine): anti-tremorine

O=C(NC1CCN(CCCc2ccccc2)CC1)c1ccccc1 [Example 39, 1-[3-Phenylpropyl]-4-benzamidopiperidine]
pA2 (α-adrenoceptor antagonism) (α-adrenoceptor): 7.1
α-adrenoceptor antagonism (α-adrenoceptor): α-adrenoceptor antagonism
Kb (histamine; [5]): 2.51 nM
Kb (histamine; [6]): 3.16 nM
antihistamine activity (histamine): anti-histamine
minimal effective dose [1, 4]: 6.4 to 12.8 mg/kg
minimal effective dose [1, 7]: 0.8 to 6.4 mg/kg
Significant bradycardia (dose; decrease in heart rate of more than 30%) [1]: 25.6 mg/kg
hypotensive activity (blood pressure): good hypotensive activity
anti-tremorine activity (tremorine): anti-tremorine activities

O=C(CCCN1CCC(NC(=O)c2ccccc2)CC1)c1ccc(F)cc1 [Example 42, 4-benzamido-1-[4-(p-fluorophenyl)-4-oxobutyl]-piperidine]
α-adrenoceptor antagonism (α-adrenoceptor): α-adrenoceptor antagonist
antihistamine activity (histamine): antihistamine
anti-inflammatory activity [2]: anti-inflammatory activity
hypotensive activity (blood pressure): marked hypotensive activity

O=C(CCCN1CCC(NC(=O)c2ccccc2)CC1)c1ccccc1 [Example 43, 4-Benzamido-1-(4-phenyl-4-oxobutyl)piperidine]
pA2 (α-adrenoceptor antagonism) (α-adrenoceptor): 7.7
α-adrenoceptor antagonism (α-adrenoceptor): α-adrenoceptor antagonist
Kb (histamine; [5]): 0.251 nM
Kb (histamine; [6]): 0.316 nM
antihistamine activity (histamine): antihistamine
minimal effective dose [1, 4]: 0.8 mg/kg
minimal effective dose [1, 7]: 0.8 to 1.6 mg/kg
Significant bradycardia (dose; decrease in heart rate of more than 30%) [1]: 0.8 to 1.6 mg/kg
hypotensive activity (blood pressure): marked hypotensive activity
Significant lowering of blood pressure [3]: 52 mmHg
cardiac effort index [3]: lowered
cardiac output [3]: lowered
heart rate lowered [3]: 35%
myocardial contractile force decreased [3]: 33%
antiarrhythmic activity (Antiarrhythmic activity): antiarrythmic activities
Anti-hypertensive Activity (systolic pressure; Table 3, fall in systolic blood pressure 2 hr after oral dose of 40 mg/kg): + ++
Pressure reduced to (systolic pressure; hypertensive rat, 40 mg/kg p.o., from 174 mmHg): 122 mmHg

O=C(NC1CCN(Cc2ccc3c(c2)OCO3)CC1)c1ccccc1 [Example 47, 4-Benzamido-1-(3,4-methylenedioxybenzyl)piperidine]
anti-inflammatory activity [2]: anti-inflammatory activity
minimal effective dose [1, 4]: 25.6 mg/kg
hypotensive activity (blood pressure): hypotensive activity

O=C(CCCN1CCC(NC(=O)c2ccccc2)CC1)c1ccc(Cl)cc1 [Example 51, 4-Benzamido-1-[4-(p-chlorophenyl)-4-oxobutyl]piperidine]
α-blockade pA2 (α-adrenoceptor): 8.4
α-adrenoceptor antagonism (α-adrenoceptor): highly potent α-adrenoceptor antagonist activity
Kb (histamine; [5]): 20 nM
antihistamine activity (histamine): anti-histamine
anti-inflammatory activity [2]: anti-inflammatory activity
minimal effective dose [1, 4]: 6.4 to 12.8 mg/kg
hypotensive activity (blood pressure): hypotensive activity

O=C(NC1CCN(CCCC(O)c2ccc(F)cc2)CC1)c1ccccc1 (centres unmarked) [Example 54, 1-[4-(p-Fluorophenyl)-4-hydroxybutyl]-4-benzamidopiperidine]
pA2 (α-adrenoceptor antagonism) (α-adrenoceptor): 6.6
Kb (histamine; [6]): 316 nM
antihistamine activity (histamine): potent antihistamine activity
minimal effective dose [1, 4]: 6.4 to 12.8 mg/kg
minimal effective dose [1, 7]: 6.4 to 12.8 mg/kg
Significant bradycardia (dose; decrease in heart rate of more than 30%) [1]: 6.4 to 12.8 mg/kg
hypotensive activity (blood pressure): hypotensive activity
Pressure reduced to (systolic pressure; hypertensive rat, 10 mg/kg, from 209 mmHg): 164 mmHg
toxicity (systolic pressure; hypertensive rat, 40 m.p.k.): Toxic

O=C(NC1CCN(CCc2ccccn2)CC1)c1ccccc1 [Example 94, 1-[2-(2-Pyridyl)ethyl]-4-benzamidopiperidine]
depressant activity (Depressant activity): depressant activities
antihistamine activity (histamine): antihistamine
hypotensive activity (blood pressure): marked hypotensive activity

O=C(NC1CCN(CC2COc3ccccc3O2)CC1)c1ccccc1 (centres unmarked) [Example 102, 2-(4'-Benzamidopiperid-1-yl)methylbenzo-1,4-dioxan]
anti-inflammatory activity [2]: anti-inflammatory activity
hypotensive activity (blood pressure): marked hypotensive activity
